How the values were obtained:
[1] = tested on: Enterobacter aerogenes ATCC 13048e; assay: Respiration assay (Example 1), electrochemical ferricyanide/DCIP mediator consumption; format: cell-based; conditions: effector 10 mM
Experimental: (§1) The ferricyanide solution is added so that the final ferricyanide concentrations is 50 mM.
(§2) The bacterial suspensions were adjusted to a MacFarland Standard of 5.0 (5.0×10sup.8 cfu/mL) or an optical density of 1.2 measured at 625 nm and cell growth was stopped by cooling the bacterial suspension for a minimum of 15 min in an ice-bath.

[2] = tested on: Staphylococcus aureus ATCC 6538P; assay: as above; format: cell-based; conditions: for Slope data: n=2
Experimental: as §1, §2

P. vulgaris ATCC6380 = assay: Relative respiratory activity with 22 effectors (Example 3); format: cell-based, Proteus vulgaris; conditions: Proteus vulgaris; for activity at 20000 µM: effector 20 mM
Source text: (§3) In this example, each microorganism is subjected to 22 different effector compounds in addition to control measurements. […] For each microorganism, duplicate measurements were made of 22 different effector compounds. In addition, duplicate measurements were made a control test containing no effector compound. One additional measurement was made of a control solution containing the microorganism with ferricyanide but without effector or DCIP.
(§4) In this example, each normalized data set containing duplicate measurements for each of 22 effector compounds is referenced to the duplicate internal controls to allow batch-to-batch comparison. The obtained signals of charge per unit electrode area for the duplicate control measurements are averaged and set at 100% respiratory cycle activity. […] The data set used to generate pattern recognition plots consists of 5 replicate batches (each batch containing duplicate measurements for each of 22 effector compounds) for each cell culture (10 strains). This is used to generate a 50 (columns)×22 (rows) matrix. The matrix is imported into MATLAB (Version 6.0). Factor analysis is performed using the MATLAB Chemometric Toolbox (Version 2.3) and involves the generation of reduced eigenvectors to determine the optimal number of factors, examination of the resulting residuals plots for randomness, and the generation of scores for the first four principle components.

E. faecalis [3] = assay: as above; format: cell-based, Enterococcus faecalis; conditions: Enterococcus faecalis; for activity at 20000 µM: effector 20 mM
Source text: as §3, §4

E. aerogenes ATCC13048e = assay: as above; format: cell-based, Enterobacter aerogenes; conditions: Klebsiella aerogenes, ATCC13048E; for activity at 20000 µM: effector 20 mM
Source text: as §3, §4

E. coli B = assay: as above; format: cell-based; conditions: Escherichia coli, 5 μM DCIP, no effector = 100%, n = 10; for activity at 20000 µM: effector 20 mM
Source text: as §3, §4

E. coli HB101 = assay: as above; format: cell-based; conditions: Escherichia coli; for activity at 20000 µM: effector 20 mM
Source text: as §3, §4

E. coli JM105 = assay: as above; format: cell-based; conditions: Escherichia coli; for activity at 20000 µM: effector 20 mM
Source text: as §3, §4

E. coli Neotype = assay: as above; format: cell-based; conditions: Escherichia coli; for activity at 20000 µM: effector 20 mM
Source text: as §3, §4

P. aeruginosa = assay: as above; format: cell-based, Pseudomonas aeruginosa; conditions: Pseudomonas aeruginosa; for activity at 20000 µM: effector 20 mM
Source text: as §3, §4

S. aureus ATCC6538P = assay: as above; format: cell-based, Staphylococcus aureus; conditions: Staphylococcus aureus, ATCC6538P; for activity at 20000 µM: effector 20 mM
Source text: as §3, §4

S. cerevisiae = assay: as above; format: cell-based, Saccharomyces cerevisiae; conditions: Saccharomyces cerevisiae; for activity at 20000 µM: effector 20 mM
Source text: as §3, §4

E. faecalis [4] = assay: Respiration assay (Example 1), electrochemical ferricyanide/DCIP mediator consumption; format: cell-based, Enterococcus faecalis; conditions: n=2
Experimental: as §1, §2

Gram-positive bacteria = conditions: effector 1 mM instead of 1 mM glucose, relative to + DCIP
Experimental: The following steps are used for each test: (1) preheating for a fixed time (4 min) and a fixed temperature (35° C.) a 150 μL aliquot of buffer containing 1 mM glucose (glc) with or without 5 μM DCIP; (2) this is followed by the addition of 50 μL of the bacterial suspension to the sample for a fixed time (10 min) and at a fixed temperature (35° C.); (3) this is followed by the addition of the mediator (50 μL of 0.4 M potassium ferricyanide) for a fixed time (10 min) and at a fixed temperature (35° C.); and (4) measurement of current at a fixed voltage difference (100 mV) between two platinum electrodes for a fixed time (120 sec) at a fixed temperature (35° C.). The final ferricyanide concentration in the sample prior to reaction with the microorganism is 40 mM.
In this configuration the assay uses two platinum electrodes each having a surface area of approximately 0.03 cm^2. The measured current depends on the concentration of the least-concentrated species of the redox-couple in solution. […] The magnitude of the measured current indicates the quantity of the reduced mediator present in the assay solution. The measured current is integrated over time to produce a plot of total charge against time. The change in total charge is measured between 30 and 120 seconds after the potential is applied. […]

[5] = read-out: relative %-respiratory activity
[6] = effector 30 mM, 5 μM DCIP, no effector = 100%, n = 20
[7] = effector 30 mM, 5 μM DCIP, no effector = 100%, n = 26
[8] = ATCC6380, 5 μM DCIP, no effector = 100%, n = 20
[9] = 5 μM DCIP, no effector = 100%, n = 20
[10] = 5 μM DCIP, no effector = 100%, n = 26
[11] = HB101, 5 μM DCIP, no effector = 100%, n = 18
[12] = JM105, 5 μM DCIP, no effector = 100%, n = 10
[13] = 5 μM DCIP, no effector = 100%, n = 18
[14] = 5 μM DCIP, no effector = 100%, n = 10

O=[N+]([O-])[O-].[K+] [nitrate, potassium nitrate]
slope ([1]; 5 μM DCIP, 50 mM ferricyanide, 35° C.): 3.7 μC/min | normalized slope ([1]; area normalized): 2.2 μC/min*mm^2 | relative activity ([1]; buffer set as 100%): 23% | slope ([2]; effector 10 mM, 5 μM DCIP, 50 mM ferricyanide, 35° C.): 6.9 μC/min | normalized slope ([2]; effector 10 mM, area normalized): 4.1 μC/min*mm^2 | relative activity ([2]; effector 10 mM, buffer set as 100%): 76%

N[C@@H](Cc1c[nH]c2ccccc12)C(=O)O [L-tryptophan]
activity at 10000 µM (P. vulgaris ATCC6380; ATCC6380, read-out: relative %-respiratory activity): 521% | activity at 10000 µM (E. faecalis [3]; [5]): 232% | activity at 10000 µM (E. aerogenes ATCC13048e; [5]): 126% | activity at 10000 µM (E. coli B; effector 10 mM, read-out: relative %-respiratory activity): 98% | activity at 10000 µM (E. coli HB101; HB101, read-out: relative %-respiratory activity): 129% | activity at 10000 µM (E. coli JM105; JM105, read-out: relative %-respiratory activity): 133% | activity at 10000 µM (E. coli Neotype; [5]): 93% | activity at 10000 µM (P. aeruginosa; [5]): 170% | activity at 10000 µM (S. aureus ATCC6538P; [5]): 139% | activity at 10000 µM (S. cerevisiae; [5]): 188%

OC[C@@H](O)[C@@H](O)[C@H](O)[C@@H](O)CO [D-sorbitol]
activity at 30000 µM (P. vulgaris ATCC6380; ATCC6380, effector 30 mM, 5 μM DCIP, no effector = 100%, n = 20): 186% | activity at 30000 µM (E. faecalis [3]; [6]): 179% | activity at 30000 µM (E. aerogenes ATCC13048e; [7]): 260% | activity at 30000 µM (E. coli B; effector 30 mM): 136% | activity at 30000 µM (E. coli HB101; HB101, effector 30 mM, 5 μM DCIP, no effector = 100%, n = 18): 124% | activity at 30000 µM (E. coli JM105; JM105, effector 30 mM, 5 μM DCIP, no effector = 100%, n = 10): 168% | activity at 30000 µM (E. coli Neotype; [7]): 111% | activity at 30000 µM (P. aeruginosa; effector 30 mM, 5 μM DCIP, no effector = 100%, n = 18): 104% | activity at 30000 µM (S. aureus ATCC6538P; [6]): 167% | activity at 30000 µM (S. cerevisiae; effector 30 mM, 5 μM DCIP, no effector = 100%, n = 10): 113%

O=C[C@@H](O)[C@@H](O)[C@H](O)[C@H](O)CO [D-mannose]
Slope data ([2]; substrate 1 mM): 16.6 μC/min | Slope data ([2]; substrate 10 mM): 14.0 μC/min | Slope data ([2]; substrate 50 mM): 15.1 μC/min | Slope data (E. faecalis [4]; substrate 1 mM): 17.8 μC/min | Slope data (E. faecalis [4]; substrate 10 mM): 19.6 μC/min | Slope data (E. faecalis [4]; substrate 50 mM): 14.5 μC/min | activity at 20000 µM (P. vulgaris ATCC6380; [8]): 250% | activity at 20000 µM (E. faecalis [3]; [9]): 654% | activity at 20000 µM (E. aerogenes ATCC13048e; [10]): 296% | activity at 20000 µM (E. coli B): 152% | activity at 20000 µM (E. coli HB101; [11]): 222% | activity at 20000 µM (E. coli JM105; [12]): 212% | activity at 20000 µM (E. coli Neotype; [10]): 139% | activity at 20000 µM (P. aeruginosa; [13]): 108% | activity at 20000 µM (S. aureus ATCC6538P; [9]): 262% | activity at 20000 µM (S. cerevisiae; [14]): 125% | respiratory signals in the absence of 5 μM DCIP (Gram-positive bacteria): below 60%

OC[C@H]1O[C@@H](O[C@H]2[C@H](O)[C@@H](O)C(O)O[C@@H]2CO)[C@H](O)[C@@H](O)[C@H]1O (stereo partly drawn) [D-lactose]
activity at 20000 µM (P. vulgaris ATCC6380; [8]): 162% | activity at 20000 µM (E. faecalis [3]; [9]): 123% | activity at 20000 µM (E. aerogenes ATCC13048e; [10]): 268% | activity at 20000 µM (E. coli B): 164% | activity at 20000 µM (E. coli HB101; [11]): 192% | activity at 20000 µM (E. coli JM105; [12]): 115% | activity at 20000 µM (E. coli Neotype; [10]): 150% | activity at 20000 µM (P. aeruginosa; [13]): 108% | activity at 20000 µM (S. aureus ATCC6538P; [9]): 138% | activity at 20000 µM (S. cerevisiae; [14]): 126%

Reference: patent publication US20070099259A1, “ELECTROCHEMICAL ASSAY FOR THE IDENTIFICATION OF MICROORGANISMS” (RAPID LABORATORY MICROSYSTEMS INC., priority 2003, published 2007)
